Results from patent US6737383B1, “Herbicidal oxadiazolidines” (priority 1999, dated 2004).

Assays:
bedstraw = test: Test B pre/postemergence bedstraw; type: in vivo, Galium aparine; conditions: Preemergence, scale of 0 to 10 where 0 is no effect and 10 is complete control
Summary of the method: (§1)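 Response is a visual 0-to-10 score relative to untreated plants, where 0 means no effect and 10 means complete control, taken twelve to sixteen days after application. Treatments went onto soil at planting and onto foliage of 1- to 4-leaf plants, using a surfactant-containing non-phytotoxic solvent.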

blackgrass = test: Test B pre/postemergence blackgrass; type: in vivo, Alopecurus myosuroides
Summary of the method: as §1

surinam grass = test: Test B pre/postemergence surinam grass; type: in vivo, Brachiaria decumbens
Summary of the method: as §1

corn = test: Test B pre/postemergence corn; type: in vivo, Zea mays
Summary of the method: as §1

crabgrass = test: Test B pre/postemergence crabgrass; type: in vivo, Digitaria sanguinalis
Summary of the method: as §1

giant foxtail = test: Test B pre/postemergence giant foxtail; type: in vivo, Setaria faberii
Summary of the method: as §1

rape = test: Test B pre/postemergence rape; type: in vivo, Brassica napus
Summary of the method: as §1

sugar beet = test: Test B pre/postemergence sugar beet; type: in vivo, Beta vulgaris
Summary of the method: as §1

velvetleaf = test: Test B pre/postemergence velvetleaf; type: in vivo, Abutilon theophrasti
Summary of the method: as §1

wheat = test: Test B pre/postemergence wheat; type: in vivo, Triticum aestivum
Summary of the method: as §1

wild oat = test: Test B pre/postemergence wild oat; type: in vivo, Avena fatua
Summary of the method: as §1

purple nutsedge = test: Test B pre/postemergence purple nutsedge; type: in vivo, Cyperus rotundus
Summary of the method: as §1

rice = test: Test B flood test rice; type: in vivo, Oryza sativa
Summary of the method: (§2)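 Read-out is a visual response score from 0 (no effect) to 10 (complete control), assigned by comparison with untreated controls. Treatment was applied at the 2-leaf stage, and plants stayed in the greenhouse for twelve to sixteen days before scoring.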

smallflower flatsedge = test: Test B flood test smallflower flatsedge; type: in vivo, Cyperus difformis
Summary of the method: as §2

duck salad = test: Test B flood test duck salad; type: in vivo, Heteranthera limosa
Summary of the method: as §2

bamyardgrass = test: Test B flood test barnyardgrass; type: in vivo, Echinochloa crus-galli
Summary of the method: as §2

[1] = Preemergence, Rate 62 g/ha, scale of 0 to 10 where 0 is no effect and 10 is complete control
[2] = Preemergence, Rate 250 g/ha, scale of 0 to 10 where 0 is no effect and 10 is complete control
[3] = Preemergence, Rate 500 g/ha, scale of 0 to 10 where 0 is no effect and 10 is complete control
[4] = Rate 62 g/ha, Postemergence, scale 0 to 10 (0 no effect, 10 complete control)
[5] = Rate 125 g/ha, Postemergence, scale of 0 to 10 where 0 is no effect and 10 is complete control
[6] = Rate 125 g/ha, Preemergence, scale of 0 to 10 where 0 is no effect and 10 is complete control
[7] = Rate 250 g/ha, Postemergence, scale of 0 to 10 where 0 is no effect and 10 is complete control
[8] = Rate 500 g/ha, Postemergence, scale 0 to 10, 0 no effect, 10 complete control
[9] = Rate 62 g/ha, headed Pre-emergence (flood test species), scale 0 to 10 (0 no effect, 10 complete control)
[10] = Rate 125 g/ha, Pre-emergence, flood test species, scale 0 to 10 where 0 is no effect and 10 is complete control
[11] = Rate 250 g/ha, Pre-emergence, flood-test species, scale 0 to 10, 0 is no effect, 10 is complete control
[12] = Rate 500 g/ha, Pre-emergence, flood test species, scale 0 to 10 (0 no effect, 10 complete control)

Q: What does the source list for CC1Cc2cccc(-n3c(=O)on(C(=O)N(c4ccc(F)cc4)C(C)C)c3=O)c2O1 (centres unmarked) [Compound 281]?
A: Bedstraw plant response rating (bedstraw; Rate 62 g/ha): 0; Bedstraw plant response rating (bedstraw; Rate 250 g/ha): 6; Plant response rating, Bedstraw (bedstraw; Rate 500 g/ha): 10; Bedstraw plant response rating (bedstraw; Rate 125 g/ha): 3; Blackgrass plant response rating (blackgrass; [1]): 0; Blackgrass plant response rating (blackgrass; [2]): 2; Plant response rating, Blackgrass (blackgrass; [3]): 4; Blackgrass plant response rating (blackgrass; [4]): 0; Blackgrass plant response rating (blackgrass; [5]): 0; Blackgrass plant response rating (blackgrass; [6]): 1; Plant response rating, Blackgrass (blackgrass; [7]): 0; Blackgrass plant response rating (blackgrass; [8]): 2; B. signalgrass plant response rating (surinam grass; [1]): 0; B. signalgrass plant response rating (surinam grass; [2]): 0; Plant response rating, B. signalgrass (surinam grass; [3]): 0; B. signalgrass plant response rating (surinam grass; [4]): 0; B. signalgrass plant response rating (surinam grass; [5]): 0; B. signalgrass plant response rating (surinam grass; [6]): 0; Plant response rating, B. signalgrass (surinam grass; [7]): 0; B. signalgrass plant response rating (surinam grass; [8]): 0; Corn plant response rating (corn; [1]): 0; Corn plant response rating (corn; [2]): 0; Plant response rating, Corn (corn; [3]): 0; Corn plant response rating (corn; [4]): 0; Corn plant response rating (corn; [5]): 0; Corn plant response rating (corn; [6]): 0; Plant response rating, Corn (corn; [7]): 0; Corn plant response rating (corn; [8]): 0; Crabgrass plant response rating (crabgrass; [1]): 2; Crabgrass plant response rating (crabgrass; [2]): 10; Plant response rating, Crabgrass (crabgrass; [3]): 10; Crabgrass plant response rating (crabgrass; [4]): 0; Crabgrass plant response rating (crabgrass; [5]): 0; Crabgrass plant response rating (crabgrass; [6]): 10; Plant response rating, Crabgrass (crabgrass; [7]): 0; Crabgrass plant response rating (crabgrass; [8]): 0; Giant foxtail plant response rating (giant foxtail; [1]): 7; Giant foxtail plant response rating (giant foxtail; [2]): 10; Plant response rating, Giant foxtail (giant foxtail; [3]): 10; Giant foxtail plant response rating (giant foxtail; [4]): 0; Giant foxtail plant response rating (giant foxtail; [5]): 0; Giant foxtail plant response rating (giant foxtail; [6]): 9; Plant response rating, Giant foxtail (giant foxtail; [7]): 0; Giant foxtail plant response rating (giant foxtail; [8]): 0; Rape plant response rating (rape; [1]): 0; Rape plant response rating (rape; [2]): 0; Plant response rating, Rape (rape; [3]): 0; Rape plant response rating (rape; [4]): 0; Rape plant response rating (rape; [5]): 0; Rape plant response rating (rape; [6]): 0; Plant response rating, Rape (rape; [7]): 0; Rape plant response rating (rape; [8]): 0; Sugarbeets plant response rating (sugar beet; [1]): 0; Sugarbeets plant response rating (sugar beet; [2]): 0; Plant response rating, Sugarbeets (sugar beet; [3]): 0; Sugarbeets plant response rating (sugar beet; [4]): 0; Sugarbeets plant response rating (sugar beet; [5]): 0; Sugarbeets plant response rating (sugar beet; [6]): 0; Plant response rating, Sugarbeets (sugar beet; [7]): 0; Sugarbeets plant response rating (sugar beet; [8]): 4; Velvetleaf plant response rating (velvetleaf; [1]): 0; Velvetleaf plant response rating (velvetleaf; [2]): 0; Plant response rating, Velvetleaf (velvetleaf; [3]): 0; Velvetleaf plant response rating (velvetleaf; [4]): 0; Velvetleaf plant response rating (velvetleaf; [5]): 1; Velvetleaf plant response rating (velvetleaf; [6]): 0; Plant response rating, Velvetleaf (velvetleaf; [7]): 1; Velvetleaf plant response rating (velvetleaf; [8]): 1; Wheat plant response rating (wheat; [1]): 0; Wheat plant response rating (wheat; [2]): 0; Plant response rating, Wheat (wheat; [3]): 0; Wheat plant response rating (wheat; [4]): 0; Wheat plant response rating (wheat; [5]): 0; Wheat plant response rating (wheat; [6]): 0; Plant response rating, Wheat (wheat; [7]): 0; Wheat plant response rating (wheat; [8]): 0; Wild oats plant response rating (wild oat; [1]): 0; Wild oats plant response rating (wild oat; [2]): 2; Plant response rating, Wild oats (wild oat; [3]): 3; Wild oats plant response rating (wild oat; [4]): 0; Wild oats plant response rating (wild oat; [5]): 0; Plant response rating, Wild oats (wild oat; [7]): 0; Wild oats plant response rating (wild oat; [8]): 0; Nutsedge plant response rating (purple nutsedge; [1]): 0; Nutsedge plant response rating (purple nutsedge; [2]): 0; Plant response rating, Nutsedge (purple nutsedge; [3]): 0; Nutsedge plant response rating (purple nutsedge; [4]): 0; Nutsedge plant response rating (purple nutsedge; [5]): 0; Nutsedge plant response rating (purple nutsedge; [6]): 0; Plant response rating, Nutsedge (purple nutsedge; [7]): 0; Nutsedge plant response rating (purple nutsedge; [8]): 0; Rice plant response rating (rice; [9]): 0; Rice plant response rating (rice; [10]): 0; Rice plant response rating (rice; [11]): 0; Rice plant response rating (rice; [12]): 0; S. Flatsedge plant response rating (smallflower flatsedge; [9]): 0; S. Flatsedge plant response rating (smallflower flatsedge; [10]): 0; S. Flatsedge plant response rating (smallflower flatsedge; [11]): 0; S. Flatsedge plant response rating (smallflower flatsedge; [12]): 0; Ducksalad plant response rating (duck salad; [9]): 0; Ducksalad plant response rating (duck salad; [10]): 0; Ducksalad plant response rating (duck salad; [11]): 0; Ducksalad plant response rating (duck salad; [12]): 0; Barnyardgrass plant response rating (bamyardgrass; [9]): 0; Barnyardgrass plant response rating (bamyardgrass; [10]): 0; Barnyardgrass plant response rating (bamyardgrass; [11]): 4; Barnyardgrass plant response rating (bamyardgrass; [12]): 2
